Measurements: patent EP4755396A1, “TREATMENT OF P53 GENE MUTATION OR DEFECT NEGATIVE CANCER AND TUMOR PATIENTS” (Ascentawits Pharmaceuticals, Ltd., priority 2023, dated 2025)
Where two headings read alike, the source gives them in different places.

Legend:
H460 cells [1] = assay: Cell cycle G2/M arrest, PI staining flow cytometry; type: cell-based; conditions: first experiment, 0.1 nM AST-3424, 5 µM Nutlin-3, 24 hours, combination: AST-3424 first (Figure 5)
Experimental: Overview of the experimental process: • 1) H460/HPAF-II cell suspensions were added to a 24-well plate, with a cell density of 100000 /well and 995 µL of medium per well. • 2) The cells were cultured overnight in an incubator at 37°C, 5% CO2. • 3) Compound Treatment
4) The cells were digested, centrifuged at 1000 g at 4°C, washed once with pre-cooled PBS, centrifuged at 1000 g at 4°C, and fixed with 1 mL of pre-cooled 70% ethanol at -20°C overnight.
5) The cells were centrifuged at 3000g at 4°C, washed once with pre-cooled PBS (phosphate buffer), centrifuged at 3000g at 4°C. Prepare PI staining solution. The cells were stained at 37°C away from light for 30 minutes, and stored in an ice bath away from light. Flow cytometric detection was performed on the same day, and the proportion of cells in different cell cycle phases was analyzed using FlowJo.

HPAF-II cells = assay: In vitro cell proliferation inhibition (96-well, CTG, 72 hours); type: cell-based; conditions: Homo sapiens, HPAF-II cells, 72 hours; for inhibition at 7.5 µM: Nutlin-3 7.5 µM; for inhibition at 10 µM: Nutlin-3 10 µM; for inhibition at 15 µM: Nutlin-3 15 µM
Experimental: (§1) • 1) H460 and HPAF-II cell suspensions were added to a 96-well plate at 100 µL per well, with a cell density of 2000 /well and 20000/well, respectively. • 2) The cells were cultured overnight in an incubator at 37°C, 5% CO2. • 3) Compound Treatment
(§2) Combination therapy: After 24 hours of cell plating, 99 µL of growth medium was supplied to each well. Each well was added with 0.5 µL of Nutlin-3 or RITA, shaken gently to ensure even mixing, and then placed in an incubator for 2 hours. Then each well was added with 0.5µL of test compounds at different concentrations, shaken gently to ensure even mixing, and then placed at 37°C, 5% CO2 in an incubator.
(§3) Monotherapy: After 24 hours of cell plating, 99.5 µL of growth medium was supplied to each well. Then each well was added with 0.5µL of test compounds at different concentrations, shaken gently to ensure even mixing, and then placed at 37°C, 5% CO2 in an incubator.
(§4) 4) The cell plate was placed in the incubator for 72 hours.
(§5) 5) The cell plate to be tested was placed at room temperature to equilibrium for 30 minutes, and 100µL of medium was discarded per well.
(§6) 6) 25µL of CTG reagent was added to each well, placed at a fast shaker to shake for 2 minutes, and placed at room temperature away from light for 30 minutes.
(§7) 7) The chemiluminescence signal value was read using a multifunctional microplate reader with a reading time of 1000 ms. The corresponding inhibition rate data were calculated.

H460 cells [2] = assay: In vitro cell proliferation inhibition under normoxia (96-well, CTG, 72 hours); type: cell-based, human; conditions: Homo sapiens, NCI-H460, H460 cells, 72 hours; for inhibition at 0.25 µM: Nutlin-3 0.25 µM; for inhibition at 0.5 µM: Nutlin-3 0.5 µM; for inhibition at 1 µM: Nutlin-3 1 µM
Experimental: Overview of the experimental process • 1) H460 cell suspension was added to a 96-well plate at 100 µL per well, with a cell density of 2000 /well. • 2) The cells were cultured overnight in an incubator at 37°C, 5% CO2. • 3) Compound Treatment
Monotherapy: After 24 hours of cell plating, each well was supplied with 99.5 µL of growth medium then added with 0.5µL of test compounds at different concentrations, shaken gently to ensure even mixing, and then placed at 37°C, 5% CO2 in an incubator.
as §2, with “plating, each well was supplied with” for “plating,”, “then” for “was supplied to each well. Each well was”, “0.5µL” for “0.5 µL”, “the combined action compound Nutlin-3,” for “Nutlin-3 or RITA,”
as §4, §5, §6
7) The chemiluminescence signal value was read using a multifunctional microplate reader with a reading time of 1000 ms.
8) IC50 was calculated with Graph Pad Prism 5 software.
as §1, §2, §3, §7
• 1) NCI-H460, NCI-H460 P53KO # 1 cell suspensions were added to a 96-well plate at 100 µL per well, with a cell density of 2000 /well. • 2) The cells were cultured overnight in an incubator at 37°C, 5% CO2. • 3) Compound Treatment
as §2, with “of” for “of growth”, “0.5µL” for “0.5 µL”, “combined action compound,” for “Nutlin-3 or RITA,”
8) The ICso (half maximal inhibitory concentration) values were calculated using GraphPad Prism 5 software.

SMILES: COc1ccc(C2=NC(c3ccc(Cl)cc3)C(c3ccc(Cl)cc3)N2C(=O)N2CCNC(=O)C2)c(OC(C)C)c1 (racemic) [Nutlin-3]
- cell cycle (G0/G1, S, G2/M phases) (H460 cells [1]): did not significantly alter the cell cycle
- inhibition at 7.5 µM (HPAF-II cells; AST 20 nM, AST+Nutlin-3 20+7.5, read-out: Inhibition rate result, experimental group 1): 8.54%
- inhibition at 10 µM (HPAF-II cells; AST 20 nM, AST+Nutlin-3 20+10, read-out: Inhibition rate result, experimental group 2): 52.5%
- inhibition at 15 µM (HPAF-II cells; AST 20 nM, AST+Nutlin-3 20+15, read-out: Inhibition rate result, experimental group 3): 73.9%
- inhibition at 7.5 µM (HPAF-II cells; AST 60 nM, AST+Nutlin-3 60+7.5, read-out: Inhibition rate result, experimental group 4): 8.54%
- inhibition at 10 µM (HPAF-II cells; AST 60 nM, AST+Nutlin-3 60+10, read-out: Inhibition rate result, experimental group 5): 52.5%
- inhibition at 15 µM (HPAF-II cells; AST 60 nM, AST+Nutlin-3 60+15, read-out: Inhibition rate result, experimental group 6): 73.9%
- inhibition at 0.25 µM (H460 cells [2]; AST 0.5 nM, AST+Nutlin-3 0.5+0.25, read-out: Inhibition rate result, experimental group 1): 11.8%
- inhibition at 0.5 µM (H460 cells [2]; AST 0.5 nM, AST+Nutlin-3 0.5+0.5, read-out: Inhibition rate result, experimental group 2): 17.3%
- inhibition at 1 µM (H460 cells [2]; AST 0.5 nM, AST+Nutlin-3 0.5+1, read-out: Inhibition rate result, experimental group 3): 18.3%
- inhibition at 0.25 µM (H460 cells [2]; AST 1.5 nM, AST+Nutlin-3 1.5+0.25, read-out: Inhibition rate result, experimental group 4): 11.8%
- inhibition at 0.5 µM (H460 cells [2]; AST 1.5 nM, AST+Nutlin-3 1.5+0.5, read-out: Inhibition rate result, experimental group 5): 17.3%
- inhibition at 1 µM (H460 cells [2]; AST 1.5 nM, AST+Nutlin-3 1.5+1, read-out: Inhibition rate result, experimental group 6): 18.3%
